According to publication PMC5578959, “Selective LRRK2 kinase inhibition reduces phosphorylation of endogenous Rab10 and Rab12 in human peripheral mononuclear blood cells” (Scientific Reports, 2017):

Key:
Assay in all cases: KiNativ profiling in human PBMCs
Assay type in all cases: binding
LOK = tested on: T1, LOK
T1 construct: purchased ActivX Technologies (KiNativ)
Outline: (§1)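 Compound was applied to living PBMCs at 0.1 µM or 1 µM. Occupancy of kinases was then assessed by KiNativ.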

DGKA = tested on: T2, DGKA; conditions: ATP
T2 construct: purchased ActivX Technologies (KiNativ)
Outline: as §1

ZAP70 = tested on: T3, ZAP70
T3 construct: purchased ActivX Technologies (KiNativ)
Outline: as §1

STLK6 = tested on: T4, STLK6; conditions: Lys2
T4 construct: purchased ActivX Technologies (KiNativ)
Outline: as §1

MAP2K5 = tested on: T5, MAP2K5; conditions: Lys2
T5 construct: purchased ActivX Technologies (KiNativ)
Outline: as §1

PFTAIRE1 = tested on: T6, PFTAIRE1; conditions: Lys1
T6 construct: purchased ActivX Technologies (KiNativ)
Outline: as §1

PIP4K2A = tested on: T7, PIP4K2A; conditions: ATP
T7 construct: purchased ActivX Technologies (KiNativ)
Outline: as §1

p70S6K,p70S6Kb = conditions: ATP Loop
Outline: as §1

MAP3K4 = tested on: T8, MAP3K4; conditions: Lys2
T8 construct: purchased ActivX Technologies (KiNativ)
Outline: as §1

Wnk1,Wnk2 = conditions: ATP Loop
Outline: as §1

JAK1 domain2 = tested on: T9, JAK1 domain2
T9 construct: JAK1 domain2; purchased ActivX Technologies (KiNativ)
Outline: as §1

CaMK2d = tested on: T10, CaMK2d; conditions: Lys1
T10 construct: purchased ActivX Technologies (KiNativ)
Outline: as §1

IRAK3 = tested on: T11, IRAK3; conditions: Lys1
T11 construct: purchased ActivX Technologies (KiNativ)
Outline: as §1

PKD2 = tested on: T12, PKD2; conditions: Lys1
T12 construct: purchased ActivX Technologies (KiNativ)
Outline: as §1

ILK = tested on: T13, ILK
T13 construct: purchased ActivX Technologies (KiNativ)
Outline: as §1

FYN,SRC,YES = conditions: Activation Loop
Outline: as §1

RSKL1 domain1 = tested on: T14, RSKL1 domain1; conditions: Protein Kinase Domain
T14 construct: RSKL1 domain1; purchased ActivX Technologies (KiNativ)
Outline: as §1

GSK3A = tested on: T15, GSK3A; conditions: Lys2
T15 construct: purchased ActivX Technologies (KiNativ)
Outline: as §1

MARK1,MARK2 = conditions: Lys1
Outline: as §1

ZAK = tested on: T16, ZAK; conditions: Lys1
T16 construct: purchased ActivX Technologies (KiNativ)
Outline: as §1

MAST3 = tested on: T17, MAST3; conditions: Lys2
T17 construct: purchased ActivX Technologies (KiNativ)
Outline: as §1

CSK = tested on: T18, CSK
T18 construct: purchased ActivX Technologies (KiNativ)
Outline: as §1

PIK3CD = tested on: T19, PIK3CD; conditions: ATP
T19 construct: purchased ActivX Technologies (KiNativ)
Outline: as §1

p38a = tested on: T20, p38a
T20 construct: purchased ActivX Technologies (KiNativ)
Outline: as §1

GSK3B = tested on: T21, GSK3B; conditions: Lys2
T21 construct: purchased ActivX Technologies (KiNativ)
Outline: as §1

Wnk1,Wnk2,Wnk3 = conditions: Lys2
Outline: as §1

CDK5 = tested on: T22, CDK5
T22 construct: purchased ActivX Technologies (KiNativ)
Outline: as §1

DNAPK = tested on: T23, DNAPK; conditions: ATP
T23 construct: purchased ActivX Technologies (KiNativ)
Outline: as §1

JAK3 domain2 = tested on: T24, JAK3 domain2
T24 construct: JAK3 domain2; purchased ActivX Technologies (KiNativ)
Outline: as §1

PKR = tested on: T25, PKR
T25 construct: purchased ActivX Technologies (KiNativ)
Outline: as §1

GPRK6 = tested on: T26, GPRK6; conditions: Lys2
T26 construct: purchased ActivX Technologies (KiNativ)
Outline: as §1

CDK7 = tested on: T27, CDK7
T27 construct: purchased ActivX Technologies (KiNativ)
Outline: as §1

MAP2K7 = tested on: T28, MAP2K7; conditions: Lys2
T28 construct: purchased ActivX Technologies (KiNativ)
Outline: as §1

FGR = tested on: T29, FGR; conditions: Activation Loop
T29 construct: purchased ActivX Technologies (KiNativ)
Outline: as §1

Cc1cccc(-c2cc(Nc3ccn(C)n3)nc3[nH]cc(C#N)c23)c1 [Lu AF58786]
Inhibition (LOK; 0.1µM, Lys1): 13.2% | Inhibition (LOK; 0.1µM, Lys2): 1.8% | Inhibition (LOK; 1µM, Lys1): 9.9% | Inhibition (DGKA; 0.1µM): 1.1% | Inhibition (DGKA; 1µM): -1.9% | Inhibition (ZAP70; 0.1µM, Activation Loop): 14.7% | Inhibition (ZAP70; 0.1µM, Lys1): 4.6% | Inhibition (ZAP70; 1µM, Activation Loop): 7.0% | Inhibition (ZAP70; 1µM, Lys1): 7.9% | Inhibition (STLK6; 0.1µM): -9.8% | Inhibition (STLK6; 1µM): -1.6% | Inhibition (MAP2K5; 0.1µM): -0.318% | Inhibition (MAP2K5; 1µM): 17.4% | Inhibition (PFTAIRE1; 0.1µM): 5.8% | Inhibition (PFTAIRE1; 1µM): -10.2% | Inhibition (PIP4K2A; 0.1µM): -4.0% | Inhibition (PIP4K2A; 1µM): -14.7% | Inhibition (p70S6K,p70S6Kb; 0.1µM): 3.7% | Inhibition (p70S6K,p70S6Kb; 1µM): -2.7% | Inhibition (MAP3K4; 0.1µM): 11.1% | Inhibition (MAP3K4; 1µM): -2.7% | Inhibition (Wnk1,Wnk2; 0.1µM): 12.8% | Inhibition (Wnk1,Wnk2; 1µM): 3.9% | Inhibition (JAK1 domain2; 0.1µM, Activation Loop): 0.9% | Inhibition (JAK1 domain2; 0.1µM, Lys1): -25.0% | Inhibition (JAK1 domain2; 1µM, Activation Loop): -39.0% | Inhibition (JAK1 domain2; 1µM, Lys1): -35.1% | Inhibition (CaMK2d; 0.1µM): 3.9% | Inhibition (CaMK2d; 1µM): -3.2% | Inhibition (IRAK3; 0.1µM): -25.6% | Inhibition (IRAK3; 1µM): 17.0% | Inhibition (PKD2; 0.1µM): 14.5% | Inhibition (PKD2; 1µM): 15.3% | Inhibition (ILK; 0.1µM, Lys1): 2.8% | Inhibition (ILK; 0.1µM, Protein Kinase Domain): -27.2% | Inhibition (ILK; 1µM, Lys1): 5.7% | Inhibition (ILK; 1µM, Protein Kinase Domain): -1.7% | Inhibition (FYN,SRC,YES; 0.1µM): -6.7% | Inhibition (FYN,SRC,YES; 1µM): -2.5% | Inhibition (RSKL1 domain1; 0.1µM): 15.2% | Inhibition (RSKL1 domain1; 1µM): 1.9% | Inhibition (GSK3A; 0.1µM): 13.7% | Inhibition (GSK3A; 1µM): 27.3% | Inhibition (MARK1,MARK2; 0.1µM): 16.5% | Inhibition (MARK1,MARK2; 1µM): 7.1% | Inhibition (ZAK; 0.1µM): 18.8% | Inhibition (ZAK; 1µM): 11.6% | Inhibition (MAST3; 0.1µM): 11.5% | Inhibition (MAST3; 1µM): 0.2% | Inhibition (CSK; 0.1µM, Activation Loop): 7.6% | Inhibition (CSK; 0.1µM, Lys1): 16.0% | Inhibition (CSK; 1µM, Activation Loop): -1.7% | Inhibition (CSK; 1µM, Lys1): 6.8% | Inhibition (PIK3CD; 0.1 µM, TKVNWLAHNVSKDNRQ): -4.8% | Inhibition (PIK3CD; 0.1 µM, VNWLAHNVSKDNRQ): 8.9% | Inhibition (PIK3CD; 1 µM, TKVNWLAHNVSKDNRQ): 14.4% | Inhibition (PIK3CD; 1 µM, VNWLAHNVSKDNRQ): 18.8% | Inhibition (p38a; 0.1µM, Lys2): 0.7% | Inhibition (p38a; 0.1 µM, Other): -1.7% | Inhibition (p38a; 1µM, Lys2): -4.6% | Inhibition (p38a; 1 µM, Other): -7.7% | Inhibition (GSK3B; 0.1µM): 9.9% | Inhibition (GSK3B; 1µM): 21.4% | Inhibition (Wnk1,Wnk2,Wnk3; 0.1µM): 10.5% | Inhibition (Wnk1,Wnk2,Wnk3; 1µM): -5.4% | Inhibition (CDK5; 0.1µM, Lys1): 15.8% | Inhibition (CDK5; 0.1µM, Lys2): 2.3% | Inhibition (CDK5; 1µM, Lys1): 17.6% | Inhibition (CDK5; 1µM, Lys2): 2.5% | Inhibition (DNAPK; 0.1 µM, EHPFLVKGGEDLR): 19.6% | Inhibition (DNAPK; 0.1 µM, KGGSWIQEINVAEK): -21.8% | Inhibition (DNAPK; 1 µM, KGGSWIQEINVAEK): 2.3% | Inhibition (JAK3 domain2; 0.1µM, Activation Loop): 4.0% | Inhibition (JAK3 domain2; 0.1µM, Lys1): 12.9% | Inhibition (JAK3 domain2; 1µM, Activation Loop): 52.9% | Inhibition (JAK3 domain2; 1µM, Lys1): 20.6% | Inhibition (PKR; 0.1µM, Activation Loop): 6.9% | Inhibition (PKR; 0.1µM, Lys2): 5.1% | Inhibition (PKR; 1µM, Activation Loop): -2.5% | Inhibition (PKR; 1µM, Lys2): 4.5% | Inhibition (GPRK6; 0.1µM): -65.0% | Inhibition (GPRK6; 1µM): -34.1% | Inhibition (CDK7; 0.1µM, Lys1): 3.7% | Inhibition (CDK7; 0.1µM, Lys2): 9.8% | Inhibition (CDK7; 1µM, Lys1): -0.256% | Inhibition (CDK7; 1µM, Lys2): 18.0% | Inhibition (MAP2K7; 0.1µM): 18.1% | Inhibition (MAP2K7; 1µM): -7.3% | Inhibition (FGR; 0.1µM): 11.4% | Inhibition (FGR; 1µM): 5.2%
